Experimental data as given in article PMC6770469, “IDE Degrades Nociceptin/Orphanin FQ through an Insulin Regulated Mechanism” (International Journal of Molecular Sciences, 2019).
Where a SMILES comes first, the peptide text is derived from it. Where no end group is shown, it is not given here. [ ]: non-standard residue; d: D form. The star is where a group is joined. Sta = CC(C)C[C@H](N)[C@@H](O)CC(=O)O; Isovaleryl = CC(C)CC(=O)*

What was measured:
[1] = system: rat spinal cord peptidases; experiment: OFQ/N cleavage by rat spinal cord homogenate with peptidase inhibitors (MALDI-MS); type: biochemical; conditions: rat spinal cord extract, 20 mM Tris-HCl 1 mM EDTA pH 7.8, 37 °C, 30 min; for inhibition of the cleavage of OFQ/N into the bioactive fragments (1-11), (1-7), (1-6): TPCK 1 mM, PMSF 1 mM, NEM 1 mM (Figure 6); for inhibition of the formation of the (1-11) fragment from OFQ/N: PHMB 0.25 mM, pepstatin A 0.01 mM (Figure 6)
Description: Tissue homogenate preparation: One rat spinal cord tissue was homogenized in 1 mL of ice-cold 20 mM Tris-HCl (Sigma, Milan, Italy) and 1 mM EDTA (Sigma, Milan, Sigma) using mechanical homogenizer. The obtained homogenate was centrifuged at 5000× g for 15 min at 4 °C. The supernatant was then centrifuged at 20,000× g for 15 min at 4 °C. Finally, the supernatant was divided into small aliquots and kept frozen at −80 °C [13].
Tissue extract (supernatant) incubation assays: Incubations were performed using one microliter of tissue extract diluted with 19 µL of 20 mM Tris-HCl 1 mM EDTA buffer pH 7.8 and 10 µL of Milli-Q water. Then, the reaction was initiated by the addition of 10 µL of OFQ/N 0.3 mM and continued at 37 °C for 30 min. Then, 40 µL of ice-cold methanol was used to stop the reaction. Incubation was repeated as mentioned above but adding different peptidase inhibitors. The inhibitors used for the incubation were: TPCK (tosyl phenylalanyl chloromethyl ketone) 1 mM, PMSF (phenylmethylsulfonyl fluoride) 1 mM, NEM (N-ethylmaleimide) 1 mM, PHMB (4-(hydroxymercuri)benzoic acid) 0.25 mM, pepstatin A 0.01 mM, and Ag^+ 1 mM. Enzyme assay including spinal cord homogenate was also validated using dynorphin B, as described previously. One microliter aliquots taken from each incubation mixture were analyzed using MALDI mass spectrometry. α-Cyano-4-hydroxycinnamic acid (4-HCCA) was used as matrix, and the final samples were spotted onto AnchorChip™ plate (Bruker Daltonics, 2013). The standard used for the calibration of the instrument is the Peptide Calibration Standard II by Bruker Daltonics, Macerata, Italy. Details and parameters of the instrument set-up were: mass range: 340–4000 Da; detector gain/reflector: 6.3x (2480 V); sample rate and digitizer settings: 2.50 GS/s; smartbeam parameter set: 4_large; positive ion mode; matrix suppression: off; random walk: complete sample; shots at raster spot: 200; limit diameter to: 800 µm; laser power: 20%; shots: 5000.

mouse = conditions: cited from earlier work
[2] = biological target: T1, insulin-degrading enzyme (IDE) (Homo sapiens, UniProt P14735); experiment: IDE degradation assays (time-course hydrolysis of the substrate, UPLC-HRMS); type: in vitro ADME
T1 construct: purchased Giotto Biotech, Florence, Italy
T1 sequence (P14735 whole entry, species assumed): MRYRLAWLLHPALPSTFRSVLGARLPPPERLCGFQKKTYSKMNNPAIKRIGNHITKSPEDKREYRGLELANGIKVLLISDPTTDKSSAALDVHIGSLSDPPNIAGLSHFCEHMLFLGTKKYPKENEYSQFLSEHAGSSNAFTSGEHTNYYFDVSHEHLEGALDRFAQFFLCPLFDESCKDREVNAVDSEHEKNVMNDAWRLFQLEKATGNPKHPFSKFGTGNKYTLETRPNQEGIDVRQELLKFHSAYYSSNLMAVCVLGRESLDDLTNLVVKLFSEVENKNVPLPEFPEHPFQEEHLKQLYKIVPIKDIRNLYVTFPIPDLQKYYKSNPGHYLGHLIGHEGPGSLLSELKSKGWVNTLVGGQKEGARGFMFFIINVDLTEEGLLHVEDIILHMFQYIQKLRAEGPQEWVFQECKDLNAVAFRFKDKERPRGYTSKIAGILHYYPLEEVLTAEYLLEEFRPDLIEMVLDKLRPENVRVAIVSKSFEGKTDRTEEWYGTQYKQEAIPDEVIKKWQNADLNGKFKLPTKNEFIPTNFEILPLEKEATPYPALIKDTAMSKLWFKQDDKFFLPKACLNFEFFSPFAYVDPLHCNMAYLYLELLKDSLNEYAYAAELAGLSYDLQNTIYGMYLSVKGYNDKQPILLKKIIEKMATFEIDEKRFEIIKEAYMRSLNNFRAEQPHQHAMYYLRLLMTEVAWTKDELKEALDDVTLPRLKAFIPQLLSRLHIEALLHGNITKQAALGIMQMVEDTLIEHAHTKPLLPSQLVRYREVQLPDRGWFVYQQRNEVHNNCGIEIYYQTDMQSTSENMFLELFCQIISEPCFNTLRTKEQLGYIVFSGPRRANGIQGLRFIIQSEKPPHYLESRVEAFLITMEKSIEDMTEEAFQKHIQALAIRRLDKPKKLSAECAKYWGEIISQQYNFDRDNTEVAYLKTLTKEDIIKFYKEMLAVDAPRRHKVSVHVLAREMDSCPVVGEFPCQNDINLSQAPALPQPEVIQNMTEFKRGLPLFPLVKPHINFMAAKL
Description: IDE degradation assays: Insulin (Ins, 2 µM, purchased from Sigma, Milan, Italy) and nociceptin peptide (OFQ/N, 2 µM, synthesized by the Fmoc solid phase synthesis and purified in our laboratory using RP HPLC) were tested for their purity using electrospray mass spectrometry (over 98% purity), and hydrolyzed in the presence of insulin-degrading enzyme (IDE, 30 nM, purchased from Giotto Biotech, Florence, Italy) in phosphate buffer 1 mM (pH 7.4, Sigma). We applied 1-16 sequence of OFQ/N because there is no difference in binding of this fragment to NOP receptors. Ins and OFQ/N were hydrolyzed both separately and in a mixture. Moreover, a pre-incubation of OFQ/N with IDE for 20 min was also performed before the addition of Ins. In order to quench the reaction, the samples were diluted 1:1 with 1% TFA aqueous solution.
The peptide content of all samples was analyzed using a Q Exactive hybrid quadrupole-Orbitrap mass spectrometer (Thermo Scientific, Milan, Italy) coupled to an Ultimate 3000 HPLC RSLCnano system (Dionex Thermo Scientific, Milan, Italy) through an EASY-Spray source (Thermo Scientific, Milan, Italy) by using the instrument settings previously reported.

CCN1C(=O)C=CC1=O [NEM, N-ethylmaleimide]
inhibition of the cleavage of OFQ/N into the bioactive fragments (1-11), (1-7), (1-6) [1]: does not show inhibition

O=C(O)c1cc[c]([Hg][OH])cc1 [PHMB, 4-(hydroxymercuri)benzoic acid]
inhibition of the formation of (1-7) and (1-6) from OFQ/N ([1]; PHMB 0.25 mM (Figure 6)): inhibits
inhibition of the formation of the (1-11) fragment from OFQ/N [1]: blocks the formation of the (1-11)fragment more than all the other inhibitors

O=S(=O)(F)Cc1ccccc1 [PMSF, phenylmethylsulfonyl fluoride]
inhibition of the cleavage of OFQ/N into the bioactive fragments (1-11), (1-7), (1-6) [1]: not efficiently inhibited

CC(C)CC(=O)N[C@H](C(=O)N[C@H](C(=O)N[C@@H](CC(C)C)[C@@H](O)CC(=O)N[C@@H](C)C(=O)N[C@@H](CC(C)C)[C@@H](O)CC(=O)O)C(C)C)C(C)C [Pepstatin A] (Isovaleryl-VV[Sta]A[Sta]-OH)
inhibition of the formation of the (1-11) fragment from OFQ/N [1]: slightly inhibits

Cc1ccc(S(=O)(=O)N[C@@H](Cc2ccccc2)C(=O)CCl)cc1 [TPCK, tosyl phenylalanyl chloromethyl ketone]
inhibition of the cleavage of OFQ/N into the bioactive fragments (1-11), (1-7), (1-6) [1]: not efficiently inhibited

(1-6): OFQ/N fragment (1-6), final product from (1-11) (FGGFTG; Nociceptin; UniProt Q13519 130-135, looked up, fragment)
effect in different analgesic tests (bi-phasic) (mouse; after ICV (Intracerebroventricular) and intrathecal injection, as reported in the literature): antinociception followed by a hyperalgesia

(1-7): OFQ/N fragment (1-7), bioactive shorter sequence (FGGFTGA; Nociceptin; UniProt Q13519 130-136, looked up, fragment)
effect on hyperalgesia induced by OFQ/N (mouse; injected in mice): blocks hyperalgesia

FGGFTGARKSARKLAN [OFQ/N, Nociceptin/Orphanin 1-16]
time within which the substrate was almost completely degraded by IDE ([2]; OFQ/N 2 µM alone, IDE 30 nM, phosphate buffer 1 mM pH 7.4, 37 °C, LC-MS (Figure 3A)): ≤ 10 min
OFQ/N content as % of the original value ([2]; OFQ/N and Ins 1:1 molar ratio (2 µM each) co-incubated with IDE 30 nM, phosphate buffer 1 mM pH 7.4, 37 °C, 30 min reaction, LC-MS (Figure 3B)): 80%
content of OFQ/N, fold lower than its starting value ([2]; after 20 min pre-incubation of OFQ/N 2 µM with IDE 30 nM at 37 °C, before addition of Ins, phosphate buffer 1 mM pH 7.4, LC-MS (Figure 4A)): 5 fold
